Assay results reported in patent US7943646B2, “Benzamidine derivative, process for the preparation thereof and pharmaceutical composition comprising same” (Dong Wha Pharmaceutical Co., Ltd., priority 2006, dated 2011).

system: osteoclast differentiation; assay: Inhibitory effect on osteoclast differentiation, co-culture of bone marrow cells and osteoblast, TRAP staining; assay type: cell-based, mouse; settings: 1 μm; 7 days co-culture; TRAP-positive osteoclasts with 3 or more nuclei, relative to negative controls
Protocol: The effect of the benzamidine derivative of the present invention on osteoclast formation and differentiation process was evaluated via co-culture with an osteoblast.
Tibia was aseptically ectomized from male 6 to 8-week-old ddY mice to harvest bone marrow cells by using a syringe (21G, Korea Green Cross). The bone marrow cells were suspended in 5 mL of an α-MEM medium (Gibco BRL Co., added with sodium bicarbonate (2.0 g/L), streptomycin (100 mg/L) and penicillin ([…]), filtered and then sterilized). The harvested cells were centrifuged at 600×g for 5 mins to collect the whole quantity. To remove the red blood cells in the bone marrow cells, 3 mL of Tris HCl (0.83% NH4Cl, pH 7.5) was added and well mixed. After centrifuging above cells, the numbers of the eukaryotic cells in the harvested bone marrow cells were counted and then immediately used for a co-culture system.
The progenitor bone and the parietal bone were aseptically ectomized from 1 to 2-day-old neonate ICR mice, washed with a phosphate butter solution (PBS) and treated with a mixed enzyme solution (of 0.2% collagenase and 0.1% dispase) sequentially (10, 10, 10, 20, 20 and 20 min), and then 3 to 6 groups of the cells which comprise lot of cells having the characteristics of the osteoblast were intensively collected and washed with a medium (a serum-free α-MEM). The washed cells were cultured in the α-MEM medium containing 10% FBS for 2 to 3 days. After subculturing, the collected cells were used for this experiment, and diluted to a concentration of 1×10^6 cells/mL for storage at −70[…].
The benzamidine derivative of the present invention was dissolved in a sterile distilled water or ethanol to dilute to a desired concentration. The final volume of the sample added to the cell culture medium was set at a ratio of 1:1000.
The bone marrow cells prepared in the above 1-1 and the osteoblast were co-cultured for osteoclast differentiation. Both the bone marrow cells (25,000 cells/cm^2) and the osteoblast (10,000 cells/cm^2) were plated in a 96-well plate using α-MEM medium containing FBS, and then cultured with the samples to be tested for 7 days. Differentiation factors, such as dexamethasone (10^−7 M) and vitamin D3 (10^−8 M), were also co-added to the medium from the first day of cultivation. The medium was changed with a fresh media containing a mixture of the samples and the differentiation factors every 2 to 3 days.
TRAP was used as a marker to measure the matured osteoclast in consideration of its characteristics showing a positive reaction to a TRAP staining solution. The TRAP staining solution was prepared in such the manner that 5 mg of naphtol AS-MS phosphate (sigma N-4875) as a substrate, and 25 mg of a coloring agent (Fast Red Violet LB salt) were dissolved in N,N-dimethylformamide (about 0.5 mL). 50 ml of a 0.1 N NaHCO3 buffer solution containing 50 mM tartaric acid (pH 5.0) was added thereto, and the mixture was stored at a refrigerator prior to use as a staining solution.
After culturing the cells for 7 days, the medium was removed from the wells, the cells were once washed with PBS, and then fixed with PBS containing 10% formalin for 2 to 5 min. The cells were fixed again in a mixed solution of ethanol and acetone (1/1) for about 1 min, and dried off. The cells were further treated by the TRAP staining solution for 15 mins and washed with water and dried off. The osteoclasts with 3 or more nuclei showing a TRAP-positive reaction were counted under a microscopic examination. Each of tests was confirmed over at least three times. The inhibitory effect on osteoclast differentiation of each experimental group, relative to negative controls, was expressed as a percentage (%).

Molecule | inhibitory effect on osteoclast differentiation(%)
CNC(=O)c1sc(C)nc1-c1ccc(OCCCCCOc2ccc(C(=N)NO)cc2)cc1 [Example 69] | 90.3
N-hydroxy-(5-{4-[5-(2-isobutyrylamino-ethyl)-2-methyl-thiazol-4-yl]-phenoxy}-pentyloxy)-benzamidine [Example 65] | 29

same assay, conditions: Mus musculus, Osteoclast, 168 h, read-out: inhibitory effect on osteoclast differentiation(%)

Molecule | inhibition at 1 µM [%]
CC(C)c1nc(-c2ccc(OCCCCCOc3ccc(C(=N)NO)cc3)cc2)c(CCn2ccnc2)s1 [Example 29, N-hydroxy-4-(5-{4-[5-(2-imidazol-1-yl-ethyl)-2-isopropyl-thiazol-4-yl]-phenoxy}-pentyloxy)-benzamidine] | 85
Cc1nc(-c2ccc(OCCCCCOc3ccc(C(=N)NO)cc3)cc2)c(CCN(CCO)CCO)s1 [Example 12, N-hydroxy-4-{5-[4-(5-{2-[bis-(2-hydroxy-ethyl)-amino]-ethyl)-2-methyl-thiazol-4-yl)-phenoxy]-pentyloxy}-benzamidine] | 56
N=C(NO)c1ccc(OCCCCCOc2ccc(-c3nc(-c4cccnc4)sc3CCn3ccnc3)cc2)cc1 [Example 26, N-hydroxy-4-(5-{4-[5-(2-imidazol-1-yl-ethyl)-2-pyridine-3-yl-thiazol-4-yl]-phenoxy}-pentyloxy)-benzamidine] | 24
CCN(CC)CCc1sc(C)nc1-c1ccc(OCCCCCOc2ccc(C(=N)NO)cc2)cc1 [Example 11, N-hydroxy-4-(5-{4-[5-(2-diethylamino-ethyl)-2-methyl-thiazol-4-yl]-phenoxy}-pentyloxy)-benzamidine] | 70
Cc1nc(-c2ccc(OCCCCCOc3ccc(C(=N)NO)cc3)cc2)c(CCN2CC(C)OC(C)C2)s1 (centres unmarked) [Example 14, N-hydroxy-4-[5-(4-{5-[2-(2,6-dimethyl-morpholin-4-yl)-ethyl]-2-methyl-thiazol-4-yl}-phenoxy)-pentyloxy]-benzamidine] | 100
COCCN(CCOC)CCc1sc(C)nc1-c1ccc(OCCCCCOc2ccc(C(=N)NO)cc2)cc1 [Example 20, N-hydroxy-4-{5-[4-(5-{2-[bis-(2-methoxy-ethyl)-amino]-ethyl}-2-methyl-thiazol-4-yl)-phenoxy]-pentyloxy}-benzamidine] | 94
N=C(NO)c1ccc(OCCCCCOc2ccc(-c3nc(-c4cccnc4)sc3CCN3CCSCC3)cc2)cc1 [Example 25, N-hydroxy-4-(5-{4-[2-pyridine-3-yl-5-(2-thiomorpholin-4-yl-ethyl)-thiazol-4-yl]-phenoxy}-pentyloxy)-benzamidine] | 65
Cc1nc(-c2ccc(OCCCCCOc3ccc(C(=N)NO)cc3)cc2)c(CCNC(C)C)s1 [Example 6, N-hydroxy-4-(5-{4-[5-(2-isopropylamino-ethyl)-2-methyl-thiazol-4-yl]-phenoxy}-pentyloxy)-benzamidine] | 59
CN1CCN(CCc2sc(-c3cccnc3)nc2-c2ccc(OCCCCCOc3ccc(C(=N)NO)cc3)cc2)CC1 [Example 24, N-hydroxy-4-[5-(4-{5-[2-(4-methyl-piperazin-1-yl)-ethyl]-2-pyridine-3-yl-thiazol-4-yl}-phenoxy)-pentyloxy]-benzamidine] | 86
CC(C)c1nc(-c2ccc(OCCCCCOc3ccc(C(=N)NO)cc3)cc2)c(CCN2CCSCC2)s1 [Example 32, N-hydroxy-4-(5-{4-[2-isopropyl-5-(2-thiomorpholin-4-yl-ethyl)-thiazol-4-yl]-phenoxy}-pentyloxy)-benzamidine] | 97
CN1CCN(CCc2sc(C3CCCCC3)nc2-c2ccc(OCCCCCOc3ccc(C(=N)NO)cc3)cc2)CC1 [Example 34, N-hydroxy-4-[5-(4-{2-cyclohexyl-5-[2-(4-methyl-piperazin-1-yl)-ethyl]-thiazol-4-yl}-phenoxy)-pentyloxy]-benzamidine] | 100

same assay, conditions: Mus musculus, Osteoclast, 168 h; 1 μm; 7 days co-culture; TRAP-positive osteoclasts with 3 or more nuclei, relative to negative controls; read-out: inhibitory effect on osteoclast differentiation(%)

Molecule | inhibition at 1 µM [%]
CNc1nc(-c2ccc(OCCCCCOc3ccc(C(=N)NO)cc3)cc2)c(CCN2CCSCC2)s1 [Example 49, N-hydroxy-4-(5-{4-[2-methylamino-5-(2-thiomorpholin-4-yl-ethyl)-thiazol-4-yl]-phenoxy}-pentyloxy)-benzamidine] | 84
Cc1nc(-c2ccc(OCCCCCOc3ccc(C(=N)NO)cc3)cc2)c(CCNC(C)(C)C)s1 [Example 21, N-hydroxy-4-(5-{4-[5-(2-tert-butylamino-ethyl)-2-methyl-thiazol-4-yl]-phenoxy}-pentyloxy)-benzamidine] | 58
N=C(NO)c1ccc(OCCCCCOc2ccc(-c3nc(-c4cccnc4)sc3CCN3CCOCC3)cc2)cc1 [Example 23, N-hydroxy-4-(5-{4-[5-(2-morpholin-4-yl-ethyl)-2-pyridine-3-yl-thiazol-4-yl]-phenoxy}-pentyloxy)-benzamidine] | 91
CN(C)c1nc(-c2ccc(OCCCCCOc3ccc(C(=N)NO)cc3)cc2)c(CCN2CCSCC2)s1 [Example 54, N-hydroxy-4-(5-{4-[2-dimethylamino-5-(2-thiomorpholin-4-yl-ethyl)-thiazol-4-yl]-phenoxy}-pentyloxy)-benzamidine] | 88
Cc1nc(-c2ccc(OCCCCCOc3ccc(C(=N)NO)cc3)cc2)c(C(=O)NC(C)C)s1 [Example 70, N-hydroxy-4-{5-[4-(5-isopropylcarbamoyl-2-methyl-thiazol-4-yl)-phenoxy]-pentyloxy}-benzamidine] | 84.8
Cc1nc(-c2ccc(OCCCCCOc3ccc(C(=N)NO)cc3)cc2)c(CCNCCCOC(C)C)s1 [Example 7, N-hydroxy-4-[5-(4-{5-[2-(3-isopropoxy-propylamino)-ethyl]-2-methyl-thiazol-4-yl}-phenoxy)-pentyloxy]-benzamidine] | 48
Cc1nc(-c2ccc(OCCCCCOc3ccc(C(=N)NO)cc3)cc2)c(CCN2CCCCC2)s1 [Example 3, N-hydroxy-4-(5-{4-[2-methyl-5-(2-piperidin-1-yl-ethyl)-thiazol-4-yl]-phenoxy}-pentyloxy)-benzamidine] | 90.7
Cc1nc(-c2ccc(OCCCCCOc3ccc(C(=N)NO)cc3)cc2)c(CCNCC(C)C)s1 [Example 22, N-hydroxy-4-(5-{4-[5-(2-isobutylamino-ethyl)-2-methyl-thiazol-4-yl]-phenoxy}-pentyloxy)-benzamidine] | 61
CC(C)c1nc(-c2ccc(OCCCCCOc3ccc(C(=N)NO)cc3)cc2)c(CCN2CCN(C)CC2)s1 [Example 28, N-hydroxy-4-[5-(4-{2-isopropyl-5-[2-(4-methyl-piperazin-1-yl)-ethyl]-thiazol-4-yl}-phenoxy)-pentyloxy]-benzamidine] | 90
CC(C)C(=O)N(C)c1nc(-c2ccc(OCCCCCOc3ccc(C(=N)NO)cc3)cc2)c(CCN2CCOCC2)s1 [Example 55, N-hydroxy-4-(5-{4-[2-(isobutyryl-methyl-amino)-5-(2-morpholin-4-yl-ethyl)-thiazol-4-yl]-phenoxy}-pentyloxy)-benzamidine] | 69
Cc1nc(-c2ccc(OCCCCCOc3ccc(C(=N)NO)cc3)cc2)c(CCN2CCSCC2)s1 [Example 15, N-hydroxy-4-(5-{4-[2-methyl-5-(2-thiomorpholin-4-yl-ethyl)-thiazol-4-yl]-phenoxy}-pentyloxy)-benzamidine] | 99
Cc1nc(-c2ccc(OCCCCCOc3ccc(C(=N)NO)cc3)cc2)c(CCN(C(C)C)C(C)C)s1 [Example 13, N-hydroxy-4-(5-{4-[5-(2-diisopropylamino-ethyl)-2-methyl-thiazol-4-yl]-phenoxy}-pentyloxy)-benzamidine] | 43
CNc1nc(-c2ccc(OCCCCCOc3ccc(C(=N)NO)cc3)cc2)c(CCN2CCN(C)CC2)s1 [Example 48, N-hydroxy-4-[5-(4-{2-methylamino-5-[2-(4-methyl-piperazin-1-yl)-ethyl]-thiazol-4-yl}-phenoxy)-pentyloxy]-benzamidine] | 60.6
